According to patent US9833520B2, “Labeled, non-peptidic, multivalent integrin antagonist compounds; methods for synthesis and uses thereof” (The Methodist Hospital Research Institute, priority 2011, dated 2017):
“And” between values parts separate entries of the source, which are not always exact repeats. Equal entries are not always repeated. “Also recorded” adds a separate entry of the source.

Legend:
HUVECs = experiment: Anti-angiogenic in vitro assay: endothelial tube formation on Matrigel; assay type: cell-based, human; conditions: 10 μg/mL, 6 hr
Description: The impact of IA derivatives on capillary-like tube formation by HUVECs was investigated. In vitro endothelial tube formation was performed as described in the literature (Park et al., 2007). Growth factor reduced Matrigel® (100 μL, BD Bioscience, San Jose, Calif., USA) was added to each well of a 96-well plate and allowed to polymerize for 30 min at 37° C. HUVECs were suspended in medium at the density of 4×10^5 cells per milliliter, and 100 μL of the cell suspension was added to each Matrigel-coated well in the presence of IA monomer, dimer and trimer. Cells were incubated at 37° C. for 6 hr, and then photographed at 20× magnification using a Micromaster® phase contrast microscope (Fisher Scientific, Pittsburgh, Pa., USA). The branch points were counted and averaged.

B16F10 melanoma tumor = experiment: In vivo antitumor efficacy in B16F10 melanoma tumor-bearing mice; conditions: for tumor volume against control group (PBS = 100%): 30 mg/kg i.p. every 12 hours; for tumor volume against control group (PBS = 100%) / average tumor volume: 14 days; for reduction in tumor mass compared to control: 30 mg/kg, endpoint
Description: All animal procedures were approved by appropriate Animal Care and Use Committee. The therapeutic test for antitumor efficacy of IA multivalent compounds was evaluated using tumor-bearing mice, which were prepared by bilateral subcutaneous injection in the thighs of nu/nu female mice (6 weeks old; 20-25 g). The mouse melanoma cancer cell line B16F10 was obtained from Caliper and tested negative for rodent pathogens. The cells were maintained in vitro as described above. The mice were inoculated with suspensions of 1×10^6 B16F10 cells in 100 μL complete medium (10% FBS added). Three days after subcutaneous inoculation (the tumor diameter was approximately 3-5 mm, the tumor volume was approximately 50 to 100 mm^3), tumor-bearing mice (n=7 per group) were injected intraperitoneally (i.p.) with each IA compound (monomer, dimer, or trimer) in PBS or PBS alone for control group. All compounds were serially diluted with PBS, and were given 2 times per day (every 12 hr) at a dose of 100 μL of 7.5, 15, 30 mg/kg per injection for 14 days. […] This study design was deliberately chosen to highlight the effect of multivalency. The tumor size was calculated as a×b^2/2, where ‘a’ is the largest and ‘b’ the smallest diameter. In addition, the weight of the mice and the tumors were recorded after harvesting.
A tumor growth model was used to isolate and interpret the effects of pharmacological dose (pharmacophore) and multivalency. This was done using the R software package ‘geepack’ (Højsgaard et al., 2006; Team et al., 2012). The tumor burden (sum of the volumes of left and right tumors) for each animal was first normalized by dividing by the starting volume on the first day of treatment, then taking the logarithm to linearize the data. The pharmacological dose was decoupled from the molecular valency, N, for this model by defining the pharmacophore or pharmacological dose (PD) as PD=N×MD, where MD is the molar dose. The pharmacological excess (compared to monomer) dose (ED) due to multivalency is then: ED=PD-MD=MD×(N−1). The data was fit to a linear model:
All animal procedures were approved by the appropriate regulatory agencies. The therapeutic test for antitumor efficacy of IA multivalent compounds was evaluated using tumor-bearing mice that were prepared by the subcutaneous injection in the dorsa of nu/nu female mice (6 weeks old; 20-25 g). The mouse melanoma cancer cell line B16F10 was obtained from Caliper, and tested negative for rodent pathogens. The cells were maintained in vitro as described above. Mice were inoculated with a suspension of 1×10^6 B16F10 cells in 100 μL complete medium (10% FBS added). Four days after subcutaneous inoculation (the tumor diameter was approximately […], the tumor volume was approximately 50 to 100 mm^3), tumor-bearing mice (n=7 per group) were inoculated intraperitoneally (i.p.) with each IA compound (Monomer, Dimer, Trimer) in PBS or PBS alone for control group. All compounds were serially diluted with PBS and were given 2 times per day (every 12 hr) so that compounds doses would be 100 μL of 7.5, 15, 30 mg/kg (maximum tolerated dose) for 14 days. The tumor size was calculated as: a×b2/2, where a is the largest and b the smallest diameter.

B16F10 cells = experiment: In vitro cytotoxicity (MTT) assay, B16F10; assay type: cell-based, mouse; conditions: B16F10, 100 μg/mL, 24 hr
Description: For cell cytotoxicity assay, the cells were then seeded into 96-well flat-bottomed tissue-culture plates at 1×10^4 cells/well and incubated for 24 hr in humidified atmosphere of 5% (vol./vol.) CO2 at 37° C. in the presence of each compound. The multivalent compound (monomer, dimer, and trimer) sample solutions were diluted with culture medium (1% FBS added) to obtain concentrations in the range of 0.1-100 μg/mL for each compound. The cytotoxic effects of monomer, dimer and trimer compounds were evaluated by adding 100 μL of each sample in 100 μL culture medium to each well. After 24-hrs' incubation, cell viability was evaluated by mitochondrial conversion of 3-(4,5-dimethylthiazol-2-yl)-2,5-diphenyl tetrazolium bromide (MTT assay) (Allison et al., 1985).
Mouse melanoma B16F10 cells (Caliper.CO,) and human melanoma M21 cells were maintained in RPMI 1640 (Caliper) containing 10% (vol./vol.) fetal bovine serum (Invitrogen, Ontario, Canada), 100 U/mL penicillin G, and 100 μg/mL streptomycin for general cell growing condition. For cell cytotoxicity assay, the cells were then seeded into 96-well flat-bottomed tissue-culture plates at 1×10^4 cells/well and incubated for 24 hr or 72 hr in humidified atmosphere of 5% (vol./vol.) CO2 at 37° C. in the presence of each compound. The multivalent compounds (monomer, dimer, trimer) sample solutions were diluted with culture medium (1% FBS added) to obtain the concentration of each compound in the range of 0.1 to 100 μg/mL. The cytotoxic effects of monomer, dimer and trimer compounds solution were evaluated by adding a mixture of 100 μL of each sample and 100 μL of culture medium to each well. After 24-hr or 72-hr incubation, cell viability was evaluated by mitochondrial conversion of 3-(4,5-dimethylthiazol-2-yl)-2,5-diphenyl tetrazolium bromide (MTT assay).

Compound	number of tube branches (control group 100%) (HUVECs) [%]	tumor volume against control group (PBS = 100%) (B16F10 melanoma tumor) [%]	average tumor volume (B16F10 melanoma tumor; 30 mg/kg i.p. twice per day)	reduction in tumor mass compared to control (B16F10 melanoma tumor; listed as dimer) [%]	average tumor volume (B16F10 melanoma tumor; Example 3, dose not stated) [mm^3]	cell viability (B16F10 cells; listed as IA-dimer)	average tumor volume (B16F10 melanoma tumor; 15 mg/kg i.p. twice per day) [mm^3]	average tumor volume as fraction of PBS-treated control mice (B16F10 melanoma tumor; 15 mg/kg, 14 days after start of treatment)	reduction in tumor mass compared to control (B16F10 melanoma tumor) [%]	survival (B16F10 melanoma tumor; 7.5, 15, 30 mg/kg twice per day)	average tumor size smaller than in the IA-dimer group (B16F10 melanoma tumor; compared to IA-dimer group) [fold]	average tumor size smaller than in the IA-monomer group (B16F10 melanoma tumor; compared to IA-monomer group) [fold]	cell viability (B16F10 cells) [%]	cell viability (B16F10 cells; listed as IA-monomer)
NC(CCCCCC(=O)NCCS(=O)(=O)N[C@@H](CNC(=O)c1ccc(OCCNC2=NCCCN2)cc1)C(=O)O)C(=O)NCCS(=O)(=O)N[C@@H](CNC(=O)c1ccc(OCCNC2=NCCCN2)cc1)C(=O)O (some centres unmarked) [bivalent IA]	68.3±2.6	45.33	2500 (s.d. 1000) mm^3	49±8	3000	smaller and less significant; also recorded: no significant changes of cell viability	–	–	–	–	–	–	–	–
O=C(NCCS(=O)(=O)N[C@@H](CNC(=O)c1ccc(OCCNC2=NCCCN2)cc1)C(=O)O)OCCN(CCOC(=O)NCCS(=O)(=O)N[C@@H](CNC(=O)c1ccc(OCCNC2=NCCCN2)cc1)C(=O)O)CCOC(=O)NCCS(=O)(=O)N[C@@H](CNC(=O)c1ccc(OCCNC2=NCCCN2)cc1)C(=O)O [IA trimer]	35.6±1.0	32.05	1800 (s.d. 800) mm^3 and 1800 mm^3	–	2000	–	2000	less than ⅓; also recorded: less than one-third	71±7	all of animals survived for at least 2 weeks	1.7	2.3	~80	–
NCCS(=O)(=O)N[C@@H](CNC(=O)c1ccc(OCCNC2=NCCCN2)cc1)C(=O)O [IA, 4-[2-(3,4,5,6-tetrahydropyrimidine-2-ylamino)ethyloxy]benzoyl-2-(S)-aminoethylsulfonyl-amino-β-alanine]	86.6±3.4	59.29	3300 (s.d. 1200) mm^3	–	5000	–	–	–	36±9	–	–	–	–	smaller and less significant; also recorded: no significant changes of cell viability
